Results published in patent US20020169296A1, “Linked, sequence-specific DNA-binding molecules” (priority 2000, published 2002).
Where two headings read alike, the source gives them in different places.

Legend:
[1] = biological target: W9 probe (isolated 9 bp AT-tract); test: DNase I footprinting on W9 probe; format: binding; conditions: for Kd: apparent dissociation constant, read-out: Kdapp W9
Text: To target AT-tracts, the principal component of satellite I, III and SARs), a pyrrole pentamer was synthesized by facile solid phase chemistry in which five pyrrole (Py) aromatic amino acid rings are linked covalently by amide bonds (Baird and Dervan, 1996). The resulting compound, termed P7 had the sequence Py-Py-Py-Py-Py-β-Dp (where β=β-alanine and Dp=dimethylaminopropylamide). This compound is expected to bind 7 successive A or T base pairs (Ws) according to the n+1 rule where n is the number of amides (Youngquist and Dervan, 1985). The DNA binding properties of P7 were assessed by DNAse I footprinting experiments using a synthetic probe containing isolated, repeated AT-tracts of 9 Ws (W9, FIG. 2A). By visual inspection, the apparent dissociation constant (Kapp) for P7 was estimated to be approximately 80 nM (Table 3).
were hybridized to obtain the W9 probe, oligomerized by ligation and digested with BamHl and BglII to obtain different tandem repeats. The following oligonucleotides were prepared identically:
(§1) Fragments were purified on low-melt agarose gels and then cloned into a modified pSP64 vector, cut by BamHI and BglII. End-labeling was carried out following digestion with HindIII and a fill-in reaction with Klenow DNA polymerase. The labeled plasmid was cut with PvuII and the target fragments purified from low-melting agarose gels. The 657 bp EcoRl/Hinf1 fragment of the Drosophila histone SAR was cloned into the SmaI site of the modified pSP64 plasmid. This SAR probe was end-labeled following digestion with EcoRl, then cut with ClaI and the resulting 347 bp fragment purified from low-melting agarose gels.
(§2) All reactions were performed in a total volume of 40 μl. A polyamide stock solution or buffer (for reference lanes) was added to an assay buffer containing 20 kcpm radiolabeled DNA, affording final concentrations of 10 mM Tris-HCl (pH 7.4), 10 mM KCl, 10 mM MgCl, 5 mM CaCl2, 0.5 mM EDTA, 0.5 mM EGTA, 1 mM DTT and 0.1% digitonine. The solutions were allowed to equilibrate for at least 2 h at room temperature. Footprinting reactions were initiated by the addition of 2 μl of a DNase stock solution (containing −100 pg DNase I in buffer) and allowed to proceed for 2 min at room temperature. The reactions were stopped by addition of 10 μl of a solution containing 1.25 M NaCl, 100 mM EDTA. Next, 5 μl of a 1% SDS solution was added, followed by 2 μl of a solution containing 1 μg poly(dA-dT), 1 μg salmon sperm DNA and 10 μg glycogen and the DNA was ethanol precipitated (20 min at −20° C.). The reactions were resuspended in 4 μl of 80% formamide loading buffer, denatured 10 min at 85° C., cooled on ice and electrophoresed on 8% polyacrylamide denaturing gels (5% cross-link, 8 M urea) at 30 W for 1 h. The gels were dried and exposed o/n at −70° C.

[2] = tested on: Drosophila histone SAR probe (clustered/long AT-tracts); test: DNase I footprinting on SAR probe; format: binding; conditions: for Kd: apparent dissociation constant, SAR probe, read-out: Kdapp SAR
Protocol: Since satellite I is composed of exclusively A and T bases, it constitutes an ‘ideal’ binding substrate for oligopyrroles. But to obtain SAR-specific compounds, molecules are required that preferably bind its clustered, irregularly spaced AT-tracts. Binding studies were carried out with P9, P7 and P13 on the Drosophila histone SAR probe which contains the following clustered/long AT-tracts (W15N3W17N5W16N13W8NW6 where N is any base, see also FIG. 3D). […] The ratio of these two affinities is used (KappW9/KappSAR) as an empirical measure of SAR specificity. For all compounds tested thus far, this value (referred to as SAR preference factor) was around unity (Table 3).
as §1, §2

[3] = tested on: Drosophila satellite III chromatin (topoisomerase II cleavage); test: Topoisomerase II cleavage in satellite III of Kc nuclei in Xenopus egg extracts with VM26; format: biochemical
[4] = tested on: sperm nuclei (condensation to chromatids); test: Chromosome condensation of sperm nuclei in mitotic Xenopus egg extracts; format: biochemical; conditions: for reversal of condensation inhibition by competitor oligonucleotide: Lex10 1 μM
Text: Mitotic Xenopus egg extracts convert added nuclei and sperm to chromatids in vitro. This chromosome condensation process requires topoisomerase II (Adachi et al., 1991), the protein complex condensin (Hirano T, 1997) and presumably other unidentified activities present in the mitotic extract. First, chromatin is remodeled and nuclei then proceed quite synchronously through a number of morphologically distinguishable steps (Hirano and Mitchison, 1991). Remodeling is morphological manifested by swelling of the nuclei which involves exchange of basic sperm-specific proteins for H2A/H2B and the incorporation of histone B4 (Dimitrov S, 1994).
Pyrrole drugs were added to the extract together with the sperm or after the remodeling step (at 10 minutes) and the extent of condensation was determined after 120 min. At this time point, the conversion of all sperm nuclei to clusters of individual chromatids is complete in the absence of drug (FIG. 8A, control). […] Addition of this compound at 125 to 250 nM (indicated) arrested this process at the so-called early ‘ruffle’ stage (FIG. 8A). These structures retain the swollen sperm shape, but they have peripheral blebs (ruffles) and a slightly heterogeneous interior. At this drug concentration, no chromatids are seen. If the concentration of Lex10 is raised to 500 nM, we observed an even earlier arrest as evidenced by the accumulation of swollen, remodeled sperm-shaped nuclei containing a homogeneous interior and smooth periphery. […] The monomer P7 was also tested but we observed no inhibition with the pyrrole pentamer up to the highest concentration (8 μM) tested. Condensation was inhibited at a ruffle stage with a P9 concentration of 2 μM (not shown).
In the experiment shown in FIG. 8B, Lex10 was added to the extract at a final concentration of 1 μM (several fold above the minimum inhibitory concentration) after which competitor oligonucleotides were added at different stages. Three different oligonucleotides of similar size were used: the SAR oligo contains two large clustered AT-tracts of the SAR probe (W17N5W15), the W9 oligo has a single AT tract of 9 base pairs and the GAGAA oligo harbors 5 tandem GAGAA repeats.
Topoisomerase II inhibition and chromosome assembly were as described previously (Girard et al., 1998, Strick and Laemmli, 1995). Affinity cleavage experiments was performed as described elsewhere (Turner et al., 1997).

Compound | Kd ([1]; W9 probe) [nM] | Kd [2] [nM] | stimulation of topoisomerase II cleavage in satellite III [3] | Ratio (KappW9/KappSAR, SAR preference factor) [2] | further results
PyPyPy-β-PyPyPy-β-Dp-E-AoAoAo-PyPyPyPyPy-β-Dp [Lex10] | 20 | 0.28 | does not stimulate | – | affinity for SAR lower than that of MATH20 [2]: approximately 100; concentration at which inhibition of topoisomerase II cleavage occurs abruptly [3]: around 600 nM; inhibition of topoisomerase II cleavage in satellite III ([3]; 1 μM): inhibits cleavage of topoisomerase II completely; concentration giving even earlier arrest (swollen, remodeled sperm-shaped nuclei) [4]: 500 nM; higher concentration than MATH20 for inhibition of condensation [4]: 80 fold; reversal of condensation inhibition by competitor oligonucleotide ([4]; 360 ng of W9 or GAGAA oligo): did not reverse the block; reversal of condensation inhibition by competitor oligonucleotide ([4]; 50 to 100 ng SAR oligo): completely reversed
CN(C)CCCNC(=O)CCNC(=O)c1cc(NC(=O)c2cc(NC(=O)c3cc(NC(=O)CCNC(=O)c4cc(NC(=O)c5cc(NC(=O)c6cc(NC(=O)CCNC(=O)c7cc(NC(=O)c8cc(NC(=O)c9cccn9C)cn8C)cn7C)cn6C)cn5C)cn4C)cn3C)cn2C)cn1C [Compound P13, PyPyPy-β-PyPyPy-β-PyPyPy-β-Dp] | 1 | 1.25 | – | 0.8 | ligand concentration giving nearly complete protection (coating) of the W9 probe [1]: ≥ 62.5 nM; GC tolerance / AT-specificity of footprint ([1]; W9 probe, flanking mixed sequences): marked tendency to protect GC base pairs
F*-γ-(Py)3-β-(Py)3-β-Dp-Glu-(Ao)3-(Py)5-β-Dp [Lex10F] | 20 | 1 | – | 20 | reduction of binding affinity upon fluorescein tagging ([1]; versus untagged compound): only a minor reduction in affinity
CN(C)CCCNC(=O)CCNC(=O)c1cc(NC(=O)c2cc(NC(=O)c3cc(NC(=O)c4cc(NC(=O)c5cccn5C)cn4C)cn3C)cn2C)cn1C [Compound P7, Py-Py-Py-Py-Py-β-Dp] | ~80 | 35 | massively stimulated | 2.3 | Kd ([1]; W9 probe, listed as P10): 80 nM; concentration inhibiting chromosome condensation (block at ruffle stage) ([4]; 120 min): > 8 µM
(Py)3-β-(Py)3-β-Dp-F* [Compound P9F] | 4 | 1 | – | 4 | increase of SAR specificity upon fluorescein tagging [2]: about 4 fold
(Py)3-β-(Py)3-(Ao)3-(Py)5-β-Dp [Lex18] | 100 | 1 | – | 100 | –
F*-γ-(Py)5-β-Dp-Glu-(Ao)3-(Py)5-β-Dp [Lex9F] | 2500 | 100 | – | 25 | –
PyPyPyPyPy-β-Dp-E-AoAoAo-PyPyPyPyPy-β-Dp [Lex9] | 3.5 | 1.75 | much reduced cleavage stimulation | 2 | SAR specificity factor after tagging with fluorescent label ([2]; value of the tagged derivative): 25; inhibition of condensation ([4]; 250 to 500 nM): Little inhibition
F*-γ-(Py)5-β-Dp [Compound P7F] | 3000 | 1200 | – | 2.5 | –
